Experimental data reported in ChEMBL document CHEMBL1158242, “New bioactive cerebrosides from Arisaema amurense” (1996).

Columns and labels:
Hepatocyte [1] = assay: Antihepatotoxic activity against CCl4-induced toxicity in rat hepatocytes assessed as effect on GPT activity at 5 uM by Reitman-Fankel method relative to control; format: functional
Hepatocyte [2] = assay: Antihepatotoxic activity against CCl4-induced toxicity in rat hepatocytes assessed as effect on SDH activity at 5 uM by Geralch method relative to control; format: functional

SMILES | Activity (Hepatocyte [1]) | Activity (Hepatocyte [2])
CCCCCCCCC/C=C\CC/C=C/[C@@H](O)[C@H](CO[C@@H]1O[C@H](CO)[C@@H](O)[C@H](O)[C@H]1O)NC(=O)[C@H](O)CCCCCCCCCCCCCCCCCC | 53.8% | 51.2%
CCCCCCCCC/C=C/CC/C=C/[C@@H](O)[C@H](CO[C@@H]1O[C@H](CO)[C@@H](O)[C@H](O)[C@H]1O)NC(=O)C(O)CCCCCCCCCCCCCCCC (some centres not stated) | 51.6% | 46.1%
CCCCCCCCC/C=C\CC/C=C/[C@@H](O)[C@H](CO[C@@H]1O[C@H](CO)[C@@H](O)[C@H](O)[C@H]1O)NC(=O)C(O)CCCCCCCCCCCCCCCC (some centres not stated) | 35.1% | 36.9%
CCCCCCCCC/C=C\CC/C=C/[C@@H](O)[C@H](CO[C@@H]1O[C@H](CO)[C@@H](O)[C@H](O)[C@H]1O)NC(=O)C(O)CCCCCCCCCCCCCC (some centres not stated) | 54.4% | 71.2%
CCCCCCCCC/C=C/CC/C=C/[C@@H](O)[C@H](CO[C@@H]1O[C@H](CO)[C@@H](O)[C@H](O)[C@H]1O)NC(=O)C(O)CCCCCCCCCCCCCCCCCC (some centres not stated) | 22.5% | 7.2%
COc1cc(C2Oc3cc([C@H]4Oc5cc(O)cc(O)c5C(=O)[C@@H]4O)ccc3OC2CO)ccc1O (some centres not stated) [SILIBININ] | 48.7% | 42.3%
